What follows are compounds tested against T1, CCR4 (Homo sapiens, UniProt P51679) (assay: CEM cell chemotaxis (migration) assay to CCL22 (MDC) in HBSS buffer with 0.1% BSA). Details: CEM cells in HBSS with 0.1% BSA; recombinant human CCL22 0.1 nM; 37° C. 60 minutes.
T1 construct: CEM Cells Endogenous Express CCR4; endogenous in cells; host or cells: CEM cells
T1 sequence (P51679 1-360): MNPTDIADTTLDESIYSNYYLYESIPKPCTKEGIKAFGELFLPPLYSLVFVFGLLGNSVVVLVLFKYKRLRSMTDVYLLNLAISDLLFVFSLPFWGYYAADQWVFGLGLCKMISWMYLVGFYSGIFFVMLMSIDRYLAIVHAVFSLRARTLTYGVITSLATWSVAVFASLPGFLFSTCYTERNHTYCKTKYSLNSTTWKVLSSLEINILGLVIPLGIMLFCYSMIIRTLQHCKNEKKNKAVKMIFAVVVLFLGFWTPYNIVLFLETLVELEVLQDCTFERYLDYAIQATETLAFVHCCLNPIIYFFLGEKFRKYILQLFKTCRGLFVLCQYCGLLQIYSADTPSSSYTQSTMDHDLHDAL
Format: cell-based
Text: (§1) CEM Cells Endogenous Express CCR4
(§2) A chemotaxis assay can be used to determine the efficacy of potential receptor antagonists at blocking the migration mediated through chemokine receptors, such as CCR4. This assay is routinely performed using the ChemoTX® microchamber system with a 5 μm pore-sized polycarbonate membrane.
(§3) HBSS: CEM Cells are collected by centrifugation at 400×g at room temperature, then suspended at 5 million/ml in Hanks' Balanced Salt Solution (HBSS) buffer with 0.1% BSA. The compound being tested is serially diluted from a maximum final concentration of 10 μM (or an equivalent volume of its solvent (DMSO)) and is then added to the cell/buffer mixture. Separately, recombinant human CCL22 (MDC) at its EC50 concentration (0.1 nM) is placed in the lower wells of the ChemoTX® plate. The 5-μm (pore size) polycarbonate membrane was placed onto the plate, and 20 μL of the cell/compound mixture is transferred onto each well of the membrane. The plates are incubated at 37° C. for 60 minutes, after which the polycarbonate membranes are removed and 5 μl of the DNA-intercalating dye CyQUANT (Invitrogen, Carlsbad, CA) is added to the lower wells. The amount of fluorescence, corresponding to the number of migrated cells, is measured using a Spectrafluor Plus plate reader (TECAN, San Jose, CA).

SMILES	IC50
C[C@@H](Nc1ncc(C(F)(F)F)c(N2CCN(C(=O)[C@H]3CCCN3)CC2)n1)c1ccc(Cl)cc1Cl [Example 1.006]	< 100 nM
C[C@@H](Nc1nc(N2CCN(C(=O)[C@H]3CCCN3)CC2)ncc1C(F)(F)F)c1ccc(Cl)cc1Cl [Example 1.007]	< 100 nM
C[C@@H](Nc1nc(N2CCN(C(=O)[C@H]3CCC(=O)N3)CC2)ncc1Cl)c1c(F)cc(Cl)cc1Cl [Example 1.250]	< 100 nM

Results, then the compound that gave them:

IC50	SMILES
< 100 nM	C[C@@H](Nc1nc(N2CCC(CO)(NC(=O)[C@H]3CCCN3)CC2)ncc1Cl)c1ccc(Cl)cc1Cl [Example 1.003]
< 100 nM	C[C@@H](Nc1nc(N2CCN(C(=O)[C@H]3CCCN3)CC2)ncc1Cl)c1ccc(Cl)cc1F [Example 1.004]
< 100 nM	CNC1CCN(C(=O)N2CCN(c3ncc(Cl)c(N[C@H](C)c4ccc(Cl)cc4Cl)n3)CC2)C1 (stereo partly drawn) [Example 1.005]
< 100 nM	C[C@@H](Nc1nc(N2CCC(N(C)C(=O)[C@H]3CCCN3)CC2)ncc1Cl)c1ccc(Cl)cc1Cl [Example 1.008]

The compounds below were run against T1, CCR4 (assay: CEM cell chemotaxis (migration) assay to CCL22 (MDC) in 100% Fetal Bovine Serum (FBS)). Details: CEM cells in 100% FBS with 1% HEPEs; recombinant human CCL22 0.1 nM; 37° C. 60 minutes.
Format: cell-based
Text: as §1, §2
as §3, with “FBS:” for “HBSS:”, “100% Fetal Bovine Serum (FBS)” for “Hanks' Balanced Salt Solution (HBSS) buffer”, “1% HEPEs.” for “0.1% BSA.”

SMILES	IC50
C[C@@H](Nc1ncc(C(F)(F)F)c(N2CCN(C(=O)[C@H]3CCCN3)CC2)n1)c1ccc(Cl)cc1Cl [Example 1.006]	< 100 nM
C[C@@H](Nc1nc(N2CCN(C(=O)[C@H]3CCCN3)CC2)ncc1C(F)(F)F)c1ccc(Cl)cc1Cl [Example 1.007]	< 100 nM
C[C@@H](Nc1nc(N2CCN(C(=O)[C@]3(C)CCCN3)CC2)ncc1Cl)c1ccc(Cl)cc1Cl [Example 1.208]	< 100 nM
C[C@@H](Nc1nc(N2CCN(C(=O)C3CNC(=O)CN3)CC2)ncc1Cl)c1ccc(Cl)cc1Cl (stereo partly drawn) [Example 1.209]	100 to 1000 nM
C[C@@H](Nc1nc(N2CCN(C(=O)[C@@]3(C)CCCN3)CC2)ncc1Cl)c1ccc(Cl)cc1Cl [Example 1.210]	< 100 nM
C[C@@H](Nc1nc(N2CCN(C(=O)C3(N)COC3)CC2)ncc1Cl)c1ccc(Cl)cc1Cl [Example 1.212]	> 1000 nM
C[C@@H](Nc1nc(N2CCN(C(=O)[C@H](N)CO)CC2)ncc1Cl)c1ccc(Cl)cc1Cl [Example 1.213]	100 to 1000 nM
CC(C)N1CCCC(C2CCN(c3ncc(Cl)c(N[C@H](C)c4ccc(Cl)cc4Cl)n3)CC2)C1 (stereo partly drawn) [Example 1.214]	< 100 nM
COC[C@@H](N)C(=O)N1CCN(c2ncc(Cl)c(N[C@H](C)c3ccc(Cl)cc3Cl)n2)CC1 [Example 1.215]	100 to 1000 nM
C[C@@H](Nc1nc(N2CCN(C(=O)c3cn(C)cn3)CC2)ncc1Cl)c1ccc(Cl)cc1Cl [Example 1.217]	100 to 1000 nM
C[C@@H](Nc1nc(N2CCN(C(=O)[C@H]3CCCN3CCC(F)(F)F)CC2)ncc1Cl)c1ccc(Cl)cc1Cl [Example 1.219]	100 to 1000 nM
C[C@@H](Nc1nc(N2CCC([C@@H]3CCCN(CCC(=O)O)C3)CC2)ncc1Cl)c1ccc(Cl)cc1Cl [Example 1.220]	< 100 nM
C[C@@H](Nc1nc(N2CCC([C@H]3CCCN(CCC(=O)O)C3)CC2)ncc1Cl)c1ccc(Cl)cc1Cl [Example 1.221]	< 100 nM
C[C@@H](Nc1nc(N2CCN(C(=O)[C@H]3CNC(=O)N3)CC2)ncc1Cl)c1ccc(Cl)cc1Cl [Example 1.222]	< 100 nM
C[C@@H](Nc1nc(N2CCN(C(=O)[C@@H]3CNCC(=O)N3)CC2)ncc1Cl)c1ccc(Cl)cc1Cl [Example 1.229]	> 1000 nM
C[C@@H](Nc1nc(N2CCN(C(=O)C3(C)CCN(C)C3)CC2)ncc1Cl)c1ccc(Cl)cc1Cl (stereo partly drawn) [Example 1.231]	< 100 nM
C[C@@H](Nc1nc(N2CCN(C(=O)C[C@H]3CCC(=O)N3)CC2)ncc1Cl)c1ccc(Cl)cc1Cl [Example 1.234]	100 to 1000 nM
C[C@@H](Nc1nc(N2CCN(C(=O)[C@H]3CCN(C)C3)CC2)ncc1C(N)=O)c1ccc(Cl)cc1Cl [Example 1.236]	< 100 nM
CC(=O)N1CCC[C@@H]1C(=O)N1CCN(c2ncc(Cl)c(N[C@H](C)c3ccc(Cl)cc3Cl)n2)CC1 [Example 1.237]	100 to 1000 nM
C[C@@H](Nc1nc(N2CCN(C(=O)[C@H]3CCC(=O)N3C)CC2)ncc1Cl)c1ccc(Cl)cc1Cl [Example 1.239]	< 100 nM
C[C@@H](Nc1nc(N2CCN(C(=O)[C@H]3CCN(C)C3)CC2)ncc1C#N)c1ccc(Cl)cc1Cl [Example 1.243]	< 100 nM
C[C@@H](Nc1nc(N2CCN(C(=O)[C@@]3(C)CCC(=O)N3)CC2)ncc1Cl)c1ccc(Cl)cc1Cl [Example 1.244]	> 1000 nM
C[C@H](Nc1nc(N2CCN(C(=O)[C@H]3CCC(=O)N3)CC2)ncc1Cl)c1ncc(Cl)cc1Cl [Example 1.255]	< 100 nM
Cc1nc(N2CCN(C(=O)[C@H]3CCC(=O)N3)CC2)nc(N[C@H](C)c2c(F)cc(Cl)cc2Cl)c1Cl [Example 1.260]	< 100 nM
C[C@@H](Nc1nc(N2CCN(C(=O)[C@H]3CCC(=O)N3)CC2)nc(C(F)(F)F)c1Cl)c1ccc(Cl)cc1Cl [Example 1.261]	< 100 nM

The next lines start with the values.

IC50	SMILES
< 100 nM	C[C@@H](Nc1nc(N2CCC(CO)(NC(=O)[C@H]3CCCN3)CC2)ncc1Cl)c1ccc(Cl)cc1Cl [Example 1.003]
< 100 nM	C[C@@H](Nc1nc(N2CCN(C(=O)[C@H]3CCCN3)CC2)ncc1Cl)c1ccc(Cl)cc1F [Example 1.004]
< 100 nM	CNC1CCN(C(=O)N2CCN(c3ncc(Cl)c(N[C@H](C)c4ccc(Cl)cc4Cl)n3)CC2)C1 (stereo partly drawn) [Example 1.005]
< 100 nM	C[C@@H](Nc1nc(N2CCC(N(C)C(=O)[C@H]3CCCN3)CC2)ncc1Cl)c1ccc(Cl)cc1Cl [Example 1.008]
100 to 1000 nM	C[C@@H](Nc1nc(N2CCN(C(=O)[C@H]3CCCN3)CC2)ncc1C#N)c1ccc(Cl)cc1Cl [Example 1.207]
< 100 nM	C[C@@H](Nc1nc(N2CCC(O[C@@H]3CCNC3)CC2)ncc1Cl)c1ccc(Cl)cc1Cl [Example 1.211]
100 to 1000 nM	C[C@@H](Nc1nc(N2CC[C@H](NC(=O)[C@H]3C[C@@H](O)CN3)[C@@H](O)C2)ncc1Cl)c1ccc(Cl)cc1Cl [Example 1.216]
> 1000 nM	C[C@@H](Nc1nc(N2CC[C@H](NC(=O)[C@H]3CN(C)C(=O)N3)[C@@H](O)C2)ncc1Cl)c1ccc(Cl)cc1Cl [Example 1.218]
> 1000 nM	C[C@@H](Nc1nc(N2CCC(NC(=O)[C@H]3CN(C)C(=O)N3)CC2)ncc1Cl)c1ccc(Cl)cc1Cl [Example 1.223]
< 100 nM	C[C@@H](Nc1nc(N2CC[C@H](NC(=O)[C@H]3CCCN3C)[C@@H](O)C2)ncc1Cl)c1ccc(Cl)cc1Cl [Example 1.224]
< 100 nM	C[C@@H](Nc1nc(N2CCN(C(=O)[C@H]3CCC(C)(C)N3)CC2)ncc1Cl)c1ccc(Cl)cc1Cl [Example 1.225]
< 100 nM	C[C@@H](Nc1nc(N2CCN(C(=O)[C@H]3CN(C)C(=O)N3)CC2)ncc1Cl)c1ccc(Cl)cc1Cl [Example 1.227]
100 to 1000 nM	C[C@@H](Nc1nc(N2CCC(C(=O)N[C@@H]3CCNC3=O)CC2)ncc1Cl)c1ccc(Cl)cc1Cl [Example 1.228]
< 100 nM	C[C@@H](Nc1nc(N2CCC(O[C@H]3CCNC3)CC2)ncc1Cl)c1ccc(Cl)cc1Cl [Example 1.230]
100 to 1000 nM	C[C@@H](Nc1nc(N2CCN(C(=O)[C@H]3CC(=O)N3)CC2)ncc1Cl)c1ccc(Cl)cc1Cl [Example 1.232]
> 1000 nM	C[C@@H](Nc1nc(N2CCC(C(=O)N[C@H]3CCNC3=O)CC2)ncc1Cl)c1ccc(Cl)cc1Cl [Example 1.233]
> 1000 nM	C[C@@H](Nc1nc(N2CCC(C(=O)NC[C@H]3CCC(=O)N3)CC2)ncc1Cl)c1ccc(Cl)cc1Cl [Example 1.235]
< 100 nM	C[C@@H](Nc1nc(N2CCN(C(=O)[C@H]3CCCC(=O)N3)CC2)ncc1Cl)c1ccc(Cl)cc1Cl [Example 1.238]
< 100 nM	C[C@@H](Nc1nc(N2CCN(C(=O)C3CCCC(=O)N3)CC2)ncc1Cl)c1ccc(Cl)cc1Cl (stereo partly drawn) [Example 1.240]
< 100 nM	C[C@@H](Nc1nc(N2CCC(OC3CCN(C)C3)CC2)ncc1Cl)c1ccc(Cl)cc1Cl (stereo partly drawn) [Example 1.241]
< 100 nM	CO[C@H]1CN(c2ncc(Cl)c(N[C@H](C)c3ccc(Cl)cc3Cl)n2)CC[C@@H]1NC(=O)[C@H]1CCCN1 [Example 1.242]
< 100 nM	C[C@@H](Nc1nc(N2CC[C@H](NC(=O)CCN(C)C)[C@@H](O)C2)ncc1Cl)c1ccc(Cl)cc1Cl [Example 1.245]
100 to 1000 nM	C[C@@H](Nc1nc(N2CC[C@H](NC(=O)[C@@]3(C)CCCN3)[C@@H](O)C2)ncc1Cl)c1ccc(Cl)cc1Cl [Example 1.246]
< 100 nM	C[C@@H]1CC[C@H](C(=O)N2CCN(c3ncc(Cl)c(N[C@H](C)c4ccc(Cl)cc4Cl)n3)CC2)N1 [Example 1.247]
< 100 nM	C[C@@H]1CC[C@H](C(=O)N[C@H]2CCN(c3ncc(Cl)c(N[C@H](C)c4ccc(Cl)cc4Cl)n3)C[C@@H]2O)N1 [Example 1.248]

Source: US20230382894A1, “CCR4 ANTAGONISTS” (CHEMOCENTRYX, INC., priority 2022, published 2023)
